This is an account of results in patent publication US9850207B2, “Substituted piperidines as soluble epdxide hydrolase inhibitors” (The Regents of the University of California, priority 2012, dated 2017).

In the assay the test system is streptozocin (STZ)-induced type I diabetes model of neuropathic pain. The assay is described as follows: streptozocin (STZ)-induced type I diabetes model of neuropathic pain (von Frey mechanical withdrawal threshold). Conditions: rats, 10 mpk, as compared to 10 mpk of celecoxib; average of 6 rats (FIG. 3). It counts as in vivo. How it is done: Diabetic neuropathic pain was modeled using streptozocin which targets and kills the pancreatic beta islet cells rendering the animals with type I diabetes. The rats were acclimated for one hour and tested for baseline thresholds before inducing diabetes. The baseline mechanical withdrawal thresholds were established using the von Frey mechanical nociceptive test with an electronic anesthesiometer (IITC, Woodland Hills, Calif.). Subsequently, streptozocin (55 mg/kg) in saline was injected via tail vein per previously reported methods (Aley, K. O. and Levine J. D. J. Pain 2001, 2, 146.). After five days the allodynia of diabetic rats was confirmed with the von Frey nociceptive assay. Rats were placed in clear acrylic chambers on a steel mesh floor. The hind paw of the rat was probed through the mesh with a rigid tip probe connected to the electronic readout pressure meter set to the maximum hold setting. The withdrawal thresholds per rat were measured 3-5 times at 1 minute intervals for each time point.
The baseline diabetic allodynia was quantified again at the beginning of all test days. The rats were then administered vehicle or sEH inhibitor via oral gavage and tested at 30 min. 1, 2, 3, 4, 5, and 6 h for mechanical withdrawal thresholds. […]

Turning to `CC(=O)N1CCC(NC(=O)NC23CC4CC(CC(C4)C2)C3)CC1` [UC1153], the “pain response (% of baseline; below 60% of baseline is painful state, 100% is lack of enhanced pain detection)” value was “significantly alleviate the pain response”.
